Columns and labels:
relapsing MS = conditions: cited from earlier work
[1] = system: subjects with relapsing remitting multiple sclerosis (RRMS); assay: ALLEGRO (MS-LAQ-301) Phase III trial: relapse endpoints; format: in vivo, human
Description: The primary endpoint of the study was the number of confirmed relapses during the double-blind treatment period, which corresponds to the annualized relapse rate (ARR—number of relapses divided by total exposure of all patients). Secondary endpoints included disability as measured by Expanded Disability Status Scale (EDSS) changes confirmed at 3 months, and cumulative number of gadolinium enhancing (GdE) and new/enlarging T2 MRI lesions. […] Eligible subjects were equally randomized 1:1 into one of the following treatment arms: • 1. […] 21, 2007 (see, page 10, line 5 to page 11, line 3). • 2. Matching placebo for laquinimod arm: one capsule is administered once daily. The primary endpoint was the number of confirmed relapses during the double-blind study period. A relapse was defined as the appearance of one or more new neurological abnormalities or the reappearance of one or more previously observed neurological abnormalities lasting for at least 48 hours and after an improved neurological state for at least 30 days. An event was counted as a relapse if the subject's symptoms were accompanied by observed objective neurological changes consistent with at least one of the following: an increase of at least 0.5 in the EDSS score; an increase of one grade in two or more of the seven functional systems; or an increase of two grades in one functional system. Standardized treatment of relapses was intravenous methylprednisolone 1 g/day for up to five consecutive days based on the treating neurologist's decision. The number of confirmed relapses (and Annualized relapse rate) during the double blind study period. The analysis of the total number of confirmed relapses during the study period is based on baseline adjusted Quasi-Likelihood (over-dispersed) Poisson Regression. Using the Poisson regression with the treatment group as a covariate, the ARR of each group was calculated for the intent-to-treat (ITT) cohort as the total number of confirmed relapses for all patients in each group divided by the total patient years in that group. In addition to the treatment group, the following covariates were included: baseline EDSS score, log of the (prior 2-year number of relapses +1) and country or geographical region.

[2] = system: subjects with relapsing remitting multiple sclerosis (RRMS); assay: ALLEGRO Phase III trial: disability endpoints (EDSS, MSFC); format: in vivo, human; conditions: for Time to confirmed (3 Ms) progression - EDSS, patients progressed: 24 months
Description: Secondary endpoints were disability progression as measured by the EDSS and the Multiple Sclerosis Functional Composite (MSFC). Confirmed disability progression was defined as an increase of ≧1.0 EDSS point from baseline if baseline EDSS was between 0 and 5.0, or an increase of ≧0.5 point if baseline EDSS was ≧5.5. In order to confirm EDSS progression, these increases had to be sustained for at least three months. Additional predefined disability endpoints include the proportion of patients without confirmed disability progression at 24 months; confirmed disability progression (defined as change in EDSS scores ≧1.0 points for baseline EDSS 0 to 5.0 or ≧5.5) sustained for six months; the accumulation of physical disability as measured by mean EDSS and the mean change in EDSS from baseline to last observed value (LOV). For the MSFC, the measure was the total MSFC z score at 24 months (including patients who terminated after 12 months). The 9-hole peg test (9HPT) and the Paced Auditory Serial Addition Test (PASAT) were performed three times at screening to reduce confounding training effects during the trial. • 1. Accumulation of physical disability measured by the time to confirmed progression of EDSS during the study period (A confirmed progression of EDSS is defined as a 1 point increase from baseline on EDSS score if baseline EDSS was between 0 and 5.0, or a 0.5 point increase if the baseline EDSS was 5.5, confirmed 3 months later. Progression cannot be confirmed during a relapse). • 2. Disability, as assessed by the MSFC score at the end of the treatment period (month 24/30). • 3. The cumulative number of new T2 lesions on scans taken on months 12 and 24 (and 30 in the case of the 6 months extended study). • 4. The cumulative number of enhancing lesions on T1-weighted images taken on months 12 and 24 (and 30 in case of extending the study for 6 months.) Safety and Tolerability Outcome Measures • 1. Adverse events. • 2. Vital signs. • 3. Weight. • 4. Physical examination. • 5. Electrocardiogram (ECG) findings. • 6. Clinical laboratory parameters. • 7. Proportion of subjects (%) who prematurely discontinued from the study, reason of discontinuation and the time to withdrawal. • 8. Proportion of subjects (%) who prematurely discontinued form the study due to AEs and the time to withdrawal. […] To control against type-I error, the secondary endpoints were analyzed only after a significant effect was found for the primary endpoint. […] The MSFC at month 24 was analyzed using a baseline-adjusted ANCOVA (SAS@PROC GLM) with baseline MSFC as 1 degree of freedom covariate and baseline EDSS score, log of the 2-year prior relapse rate +1 and country or geographical region as additional covariates. […]

[3] = post-hoc, vs placebo, listed as laquinimod

CCN(C(=O)c1c(O)c2c(Cl)cccc2n(C)c1=O)c1ccccc1 [Laquinimod, laquinimod]
Development of active MRI lesions (relapsing MS): reduce development of active MRI lesions | Relapses requiring hospitalization (annualized rate) ([1]; post-hoc): 0.071 | ARR 1st year, Effect ([1]; post-hoc, vs placebo): 24% reduction | ARR by median relapse duration: >34 days, Effect ([1]; post-hoc, vs placebo): 1.3% reduction | ARR by median relapse duration: ≦34 days, Effect ([1]; post-hoc, vs placebo): 37% reduction | ARR for dropouts, Effect ([1]; post-hoc, vs placebo): 26% reduction | ARR, Full recovery, Effect ([1]; post-hoc, vs placebo): 13% reduction | ARR, No recovery, Effect ([1]; post-hoc, vs placebo): 24% reduction | Relapses requiring IV steroids, Effect ([1]; post-hoc, vs placebo): 27% reduction | Relapses requiring hospitalization, Effect ([1]; post-hoc, vs placebo): 38% reduction | Unconfirmed relapses, Effect ([1]; post-hoc, vs placebo): 17% reduction | Relapses requiring IV steroids, Effect [1, 3]: 27 % reduction | Relapses requiring hospitalization, Effect [1, 3]: 38 % reduction | ARR, No recovery ([1]; post-hoc, recovery refers to EDSS before and after attack): 0.06 | Annualized rate of relapses requiring hospitalization and/or IV steroids, Effect ([1]; vs placebo): 27% reduction | Relapse-free during study, increase in odds to be relapse free ([1]; vs placebo): 55% increase odds to | Relapse-free during study, increase in odds to be relapse free ([1]; vs placebo, listed as laquinimod): 55% | Time to confirmed (3 Ms) progression - EDSS, patients progressed [2]: 9.8% progressed | Time to confirmed (3 Ms) progression - EDSS, patients progressed ([2]; listed as laquinimod): 9.8 % progressed | EDSS score at LOV, median ([2]; last observed value): 2.5 | MSFC total z scores at 24 months, Effect: reduction of risk to progress ([2]; vs placebo): 34% reduction of
